pIC50: −log10 of the molar value.
Columns and labels:
[1] = tested on: HEK293 cells cotransfected with the FOP control vector; experiment: HEK293 FOP assay (control reporter with non-functional TCF elements); assay type: cell-based; conditions: Homo sapiens, 16 hours
How it was run: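 Stable HEK293 line carrying FOP control reporter (randomized non-functional TCF sites, with pcDNA3), Geneticin-selected, plated 24 h before assay. Stimulated with recombinant human Wnt-3a (2500-5 ng/ml) and compounds 50 μM–15 nM (3.16-fold steps) in CAFTY buffer pH 7.4 with 2 mM Ca2+, 0.01% BSA, run parallel to TOP line.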

[2] = tested on: wildtype Wnt signaling cascade; experiment: HEK293 TOP assay (Super TopFlash luciferase reporter, Wnt-3a stimulated); assay type: cell-based; conditions: Homo sapiens, HEK293, 16 h, HEK293 TOP reporter cells, Wnt3a at EC50, 16 hours
How it was run: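 HEK293 cells stably carrying Super TopFlash (TOP) run in parallel with FOP cells, 10000/well plated 24 h ahead, stimulated with recombinant human Wnt-3a. Compounds tested 50 μM to 15 nM in 3.16-fold steps in CAFTY buffer pH 7.4 with 2 mM Ca^2+ and 0.01% BSA; luciferase read-out.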

[3] = biological target: T1, TNKS2 (Homo sapiens, UniProt Q9H2K2); experiment: TNKS2 Assay B (auto-parsylation, [3H]-NAD+ SPA); assay type: biochemical; conditions: 6 nM TNKS2, auto-parsylation, over night at room temperature
T1 construct: purchased BPS Bioscience, San Diego, USA 80572 (TNKS2 Histone Ribosylation Assay Kit)
T1 sequence (Q9H2K2 1-1166): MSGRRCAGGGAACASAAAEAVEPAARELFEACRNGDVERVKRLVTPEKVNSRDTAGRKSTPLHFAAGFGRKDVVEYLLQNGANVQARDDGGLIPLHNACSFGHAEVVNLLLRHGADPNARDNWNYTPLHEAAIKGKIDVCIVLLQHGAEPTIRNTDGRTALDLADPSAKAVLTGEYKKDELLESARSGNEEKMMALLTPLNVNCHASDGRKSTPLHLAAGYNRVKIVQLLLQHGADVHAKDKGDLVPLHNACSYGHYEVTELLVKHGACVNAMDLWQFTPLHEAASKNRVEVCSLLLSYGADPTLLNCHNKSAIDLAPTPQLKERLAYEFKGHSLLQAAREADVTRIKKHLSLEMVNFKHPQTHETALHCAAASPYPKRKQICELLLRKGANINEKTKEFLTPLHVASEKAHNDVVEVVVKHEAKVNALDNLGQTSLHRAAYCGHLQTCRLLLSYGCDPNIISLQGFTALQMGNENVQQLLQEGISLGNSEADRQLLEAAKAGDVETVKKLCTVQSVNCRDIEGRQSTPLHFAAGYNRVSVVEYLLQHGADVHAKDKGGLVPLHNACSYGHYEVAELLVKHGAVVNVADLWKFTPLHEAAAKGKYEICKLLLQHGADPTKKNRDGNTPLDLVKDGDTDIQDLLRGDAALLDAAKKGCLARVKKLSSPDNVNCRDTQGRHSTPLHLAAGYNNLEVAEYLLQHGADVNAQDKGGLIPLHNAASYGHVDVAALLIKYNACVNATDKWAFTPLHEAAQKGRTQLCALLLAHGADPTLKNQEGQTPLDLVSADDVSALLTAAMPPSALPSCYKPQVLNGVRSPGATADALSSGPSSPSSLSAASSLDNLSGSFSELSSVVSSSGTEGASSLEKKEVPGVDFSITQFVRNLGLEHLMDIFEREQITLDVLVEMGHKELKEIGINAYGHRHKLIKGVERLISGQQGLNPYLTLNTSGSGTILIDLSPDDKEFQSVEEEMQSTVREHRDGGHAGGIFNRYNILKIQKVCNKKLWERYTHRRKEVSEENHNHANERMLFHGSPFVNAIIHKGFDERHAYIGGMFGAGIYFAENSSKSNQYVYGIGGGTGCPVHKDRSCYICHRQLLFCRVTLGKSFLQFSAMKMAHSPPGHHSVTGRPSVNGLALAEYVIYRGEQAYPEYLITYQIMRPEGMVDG

Row | Compound | pIC50 [2] | pIC50 [3] | pIC50 [1]
1 | O=C(NC12CCC(C(=O)Nc3c(F)cc(F)cc3Cl)(CC1)CC2)c1cnc2cccnn12 [Example 123, N-{4-[(2-chloro-4,6-difluorophenyl)carbamoyl]bicyclo[2.2.2]oct-1-yl}imidazo[1,2-b]pyridazine-3-carboxamide] | 6.18 | 6.32 | ≤ 4.30
2 | O=C(NC12CCC(C(=O)Nc3cnccc3Cl)(CC1)CC2)c1cnc2cccnn12 [Example 124, N-{4-[(4-chloropyridin-3-yl)carbamoyl]bicyclo[2.2.2]oct-1-yl}imidazo[1,2-b]pyridazine-3-carboxamide] | 6.54 | 6.59 | 5.05
3 | Cc1cc(C)n2ncc(C(=O)NC34CCC(C(=O)Nc5ccc(F)cc5Cl)(CC3)CC4)c2n1 [Example 125, N-{4-[(2-chloro-4-fluorophenyl)carbamoyl]bicyclo[2.2.2]oct-1-yl}-5,7-dimethylpyrazolo[1,5-a]pyrimidine-3-carboxamide] | 7.16 | 6.89 | ≤ 4.30
4 | Cc1cc(C)n2ncc(C(=O)NC34CCC(C(=O)Nc5cc(C)c(F)cc5Cl)(CC3)CC4)c2n1 [Example 126, N-{4-[(2-chloro-4-fluoro-5-methylphenyl)carbamoyl]bicyclo[2.2.2]oct-1-yl}-5,7-dimethylpyrazolo[1,5-a]pyrimidine-3-carboxamide] | 6.72 | 7.19 | ≤ 4.30
5 | Cc1cc(C)n2ncc(C(=O)NC34CCC(C(=O)Nc5c(F)cc(F)cc5Cl)(CC3)CC4)c2n1 [Example 127, N-{4-[(2-chloro-4,6-difluorophenyl)carbamoyl]bicyclo[2.2.2]oct-1-yl}-5,7-dimethylpyrazolo[1,5-a]pyrimidine-3-carboxamide] | 6.66 | 6.52 | ≤ 4.30
6 | Cc1cc(C)n2ncc(C(=O)NC34CCC(C(=O)Nc5cnccc5Cl)(CC3)CC4)c2n1 [Example 128, N-{4-[(4-chloropyridin-3-yl)carbamoyl]bicyclo[2.2.2]oct-1-yl}-5,7-dimethylpyrazolo[1,5-a]pyrimidine-3-carboxamide] | 6.62 | 7.02 | ≤ 4.30
7 | O=C(NCC1CCCO1)c1nc[nH]c1C(=O)N[C@H]1CC[C@H](C(=O)Nc2cc(F)ccc2Cl)CC1 (stereo partly drawn) [Example 129, N^5-{trans-4-[(2-chloro-5-fluorophenyl)carbamoyl]cyclohexyl}-N^4-(tetrahydrofuran-2-ylmethyl)-1H-imidazole-4,5-dicarboxamide] | 6.39 | 7.47 | 4.41
8 | O=C(N[C@H]1CC[C@H](C(=O)Nc2c(F)cc(F)cc2Cl)CC1)c1cnc2cccnn12 [Example 133, N-{trans-4-[(2-chloro-4,6-difluorophenyl)carbamoyl]cyclohexyl}imidazo[1,2-b]pyridazine-3-carboxamide] | 6.54 | 7.26 | ≤ 4.30
9 | Cc1cc(C)n2ncc(C(=O)N[C@H]3CC[C@H](C(=O)Nc4cc(F)c(F)cc4Cl)CC3)c2n1 [Example 134, N-{trans-4-[(2-chloro-4,5-difluorophenyl)carbamoyl]cyclohexyl}-5,7-dimethylpyrazolo[1,5-a]pyrimidine-3-carboxamide] | 6.85 | 7.48 | ≤ 4.30
10 | Cc1cnc2c(C(=O)N[C@H]3CC[C@@]4(CCN(c5ccc(F)cc5Cl)C4=O)CC3)cnn2c1 [Example 137, N-[(trans)-2-(2-chloro-4-fluorophenyl)-1-oxo-2-azaspiro[4.5]dec-8-yl]-6-methylpyrazolo[1,5-a]pyrimidine-3-carboxamide] | 5.30 | 8.48 | ≤ 4.30
11 | COCC(C)NC(=O)c1nc[nH]c1C(=O)N[C@H]1CC[C@H](C(=O)Nc2cc(C(F)(F)F)ccc2Cl)CC1 (stereo partly drawn) [Example 143, N^5-(trans-4-{[2-chloro-5-(trifluoromethyl)phenyl]carbamoyl}cyclohexyl)-N^4-(1-methoxypropan-2-yl)-1H-imidazole-4,5-dicarboxamide] | 6.66 | 6.82 | 4.48
12 | COC(C)(C)CNC(=O)c1nc[nH]c1C(=O)N[C@H]1CC[C@H](C(=O)Nc2cc(C(F)(F)F)ccc2Cl)CC1 [Example 144, N^5-(trans-4-{[2-chloro-5-(trifluoromethyl)phenyl]carbamoyl}cyclohexyl)-N^4-(2-methoxy-2-methylpropyl)-1H-imidazole-4,5-dicarboxamide] | 6.60 | 6.64 | 4.60

Further lines, with some results ahead:

Row | pIC50 [2] | pIC50 [3] | Compound | pIC50 [1]
13 | 7.66 | 7.74 | O=C(N[C@H]1CC[C@H](C(=O)Nc2cc(F)c(F)cc2Cl)CC1)c1cnn2cccnc12 [Example 130, N-{trans-4-[(2-chloro-4,5-difluorophenyl)carbamoyl]cyclohexyl}pyrazolo[1,5-a]pyrimidine-3-carboxamide] | ≤ 4.30
14 | 7.29 | 7.54 | O=C(N[C@H]1CC[C@H](C(=O)Nc2cc(F)c(F)cc2Cl)CC1)c1cnc2cccnn12 [Example 132, N-{trans-4-[(2-chloro-4,5-difluorophenyl)carbamoyl]cyclohexyl}imidazo[1,2-b]pyridazine-3-carboxamide] | ≤ 4.30
15 | 7.42 | 7.54 | Cc1cc(C)n2ncc(C(=O)N[C@H]3CC[C@H](C(=O)Nc4c(F)cc(F)cc4Cl)CC3)c2n1 [Example 135, N-{trans-4-[(2-chloro-4,6-difluorophenyl)carbamoyl]cyclohexyl}-5,7-dimethylpyrazolo[1,5-a]pyrimidine-3-carboxamide] | ≤ 4.30
16 | 8.92 | 8.33 | O=C(N[C@H]1CC[C@@]2(CCN(c3ccc(F)cc3Cl)C2=O)CC1)c1cnn2cccnc12 [Example 136, N-[(trans)-2-(2-chloro-4-fluorophenyl)-1-oxo-2-azaspiro[4.5]dec-8-yl]pyrazolo[1,5-a]pyrimidine-3-carboxamide] | ≤ 4.30
17 | 8.21 | 8.15 | O=C(N[C@H]1CC[C@@]2(CCN(c3ccc(F)cc3Cl)C2=O)CC1)c1cnc2cccnn12 [Example 138, N-[(trans)-2-(2-chloro-4-fluorophenyl)-1-oxo-2-azaspiro[4.5]dec-8-yl]imidazo[1,2-b]pyridazine-3-carboxamide] | ≤ 4.30
18 | 8.96 | 8.38 | Cc1cc(C)n2ncc(C(=O)N[C@H]3CC[C@@]4(CCN(c5ccc(F)cc5Cl)C4=O)CC3)c2n1 [Example 139, N-[(trans)-2-(2-chloro-4-fluorophenyl)-1-oxo-2-azaspiro[4.5]dec-8-yl]-5,7-dimethylpyrazolo[1,5-a]pyrimidine-3-carboxamide] | ≤ 4.30
19 | 9.07 | 8.16 | CNC(=O)c1[nH]cnc1C(=O)N[C@H]1CC[C@@]2(CCN(c3ccc(F)cc3Cl)C2=O)CC1 [Example 140, N^4-[(trans)-2-(2-chloro-4-fluorophenyl)-1-oxo-2-azaspiro[4.5]dec-8-yl]-N^5-methyl-1H-imidazole-4,5-dicarboxamide] | ≤ 4.30
20 | 8.74 | 8.19 | CCNC(=O)c1[nH]cnc1C(=O)N[C@H]1CC[C@@]2(CCN(c3ccc(F)cc3Cl)C2=O)CC1 [Example 141, N^4-[(trans)-2-(2-chloro-4-fluorophenyl)-1-oxo-2-azaspiro[4.5]dec-8-yl]-N^5-ethyl-1H-imidazole-4,5-dicarboxamide] | ≤ 4.30
21 | 7.17 | 7.10 | CNC(=O)c1nc[nH]c1C(=O)N[C@H]1CC[C@H](C(=O)Nc2cc(C(F)(F)F)ccc2Cl)CC1 [Example 142, N^5-(trans-4-{[2-chloro-5-(trifluoromethyl)phenyl]carbamoyl}cyclohexyl)-N^4-methyl-1H-imidazole-4,5-dicarboxamide] | 4.39
